The values that follow come from patent publication US20120088803A1, “CONTROL AGENT FOR SOFT ROT AND CONTROL METHOD FOR THE SAME” (Ishihara Sangyo Kaisha, Ltd, priority 2009, published 2012).

In this assay the test system is Erwinia carotovora (potato Erwinia carotovora). Kind of assay: Test for growth inhibition of potato Erwinia carotovora (PSA medium plate). The format is cell-based. As to conditions: for Growing state of Erwinia carotovora (formed colonies): PSA medium, 25 degrees C., 4 days, two plates per cell. On the procedure: Reference test example: Test for growth inhibition of potato Erwinia carotovora
A test for growth inhibition of Erwinia carotovora in the case of direct application of the control agent to Erwinia carotovora was performed. To previously melted PSA medium (55 degrees C.), a predetermined amount of a pesticide 3-chloro-N-(3-chloro-5-trifluoromethyl-2-pyridyl)-alpha,alpha,alpha-trifluoro-2,6-dinit ro-p-toluidine (fluazinam, Frowncide SC (trade name), manufactured by Ishihara Sangyo Kaisha, Ltd.), ethaboxam wettable powder (Ethaboxam, Gardian (trade name), manufactured by LG Chemical), or streptomycin (Mycin wettable powder (trade name), manufactured by Hokko Chemical Industry Co., Ltd.) and a suspension of Erwinia carotovora (potato Erwinia carotovora) were added and the resulting mixture was stirred well, and then, poured in a plate. Then, the plate was cultured at 25 degrees C. for 4 days, and the growing state of Erwinia carotovora was examined. Thereafter, the formed colonies were examined according to the following three criteria. • +: Equal to the colonies of the untreated group • Plus or minus: Apparently less than the colonies of the untreated group • −: Almost no colonies

For the compound `CCNc1nc(CC)c(C(=O)NC(C#N)c2cccs2)s1` (stereo not shown) [Ethaboxam WP, ethaboxam], the “Growing state of Erwinia carotovora (formed colonies)” value is, setting by setting: (Active ingredient concentration 100 ppm) “+, +”; (Active ingredient concentration 500 ppm) “+, +”; (Active ingredient concentration 1000 ppm) “+, +”. In addition, the “Growth inhibition of Erwinia carotovora (in words)” value (active ingredient concentration of 1000 ppm, direct application) was “did not inhibit the growth”.
